Test results published in article PMC10280043 (RSC Advances, 2023).

Legend:
hCAXII = hCAXII (Homo sapiens, UniProt O43570); experiment: Carbonic anhydrase inhibition assay, hCAXII; assay type: biochemical
hCAIX = hCAIX (Homo sapiens, UniProt Q16790); experiment: biochemical
hCAII = hCAII (Homo sapiens, UniProt P00918); experiment: Carbonic anhydrase inhibition assay, hCAII; assay type: biochemical

hCAXII, sequence (O43570 25-354): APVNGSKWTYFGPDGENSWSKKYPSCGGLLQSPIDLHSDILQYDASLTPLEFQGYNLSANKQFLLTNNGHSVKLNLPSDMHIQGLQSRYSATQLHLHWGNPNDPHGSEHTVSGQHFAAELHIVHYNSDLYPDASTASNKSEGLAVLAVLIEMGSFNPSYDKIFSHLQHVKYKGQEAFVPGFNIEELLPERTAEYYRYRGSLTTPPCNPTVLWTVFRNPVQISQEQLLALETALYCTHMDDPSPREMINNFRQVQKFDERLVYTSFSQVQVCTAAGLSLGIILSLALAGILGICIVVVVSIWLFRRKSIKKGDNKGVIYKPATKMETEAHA

SMILES | IC50 (hCAXII) [nM] | IC50 (hCAIX) [nM] | IC50 (hCAII) [nM]
COc1cccc(C2CC(c3cc(Cl)cc(Cl)c3O)=NN2c2ccc(S(N)(=O)=O)cc2)c1 (stereo not drawn) [4i, 4-(3-(3,5-Dichloro-2-hydroxyphenyl)-5-(3-methoxyphenyl)-4,5-dihydro-1H-pyrazol-1-yl)benzene sulfonamide] | 1600 ± 10 | 4510 ± 220 | 8150 ± 190
Cc1ccc(C2CC(c3cc(Br)ccc3O)=NN2c2ccc(S(N)(=O)=O)cc2)cc1 (stereo not drawn) [4f, 4-(3-(5-Bromo-2-hydroxyphenyl)-5-(p-tolyl)-4,5-dihydro-1H-pyrazol-1-yl)benzene sulfonamide] | 6970 ± 140 | 240 ± 80 | 
COc1ccccc1C1CC(c2ccc(F)cc2O)=NN1c1ccc(S(N)(=O)=O)cc1 (stereo not drawn) [4k, 4-(3-(4-Fluoro-2-hydroxyphenyl)-5-(2-methoxyphenyl)-4,5-dihydro-1H-pyrazol-1-yl)benzene sulfonamide] | 1000 ± 90 |  | 
COc1cccc(C2CC(c3cc(Br)ccc3O)=NN2c2ccc(S(N)(=O)=O)cc2)c1 (stereo not drawn) [4g, 4-(3-(5-Bromo-2-hydroxyphenyl)-5-(3-methoxyphenyl)-4,5-dihydro-1H-pyrazol-1-yl)benzene sulfonamide] | 120 ± 70 | 5280 ± 690 | 8260 ± 990

More lines, now with the values ahead:

IC50 (hCAXII) [nM] | IC50 (hCAIX) [nM] | IC50 (hCAII) [nM] | SMILES
280 ± 50 | 150 ± 70 | 390 ± 50 | Cc1ccc(C2CC(c3ccc(F)cc3O)=NN2c2ccc(S(N)(=O)=O)cc2)cc1 (stereo not drawn) [4j, 4-(3-(4-Fluoro-2-hydroxyphenyl)-5-(p-tolyl)-4,5-dihydro-1H-pyrazol-1-yl)benzene sulfonamide]
2870 ± 20 | 7080 ± 400 | 1200 ± 400 | NS(=O)(=O)c1ccc(N2N=C(c3ccccc3O)CC2c2ccc(Cl)cc2)cc1 (stereo not drawn) [4c, 4-(5-(4-Chlorophenyl)-3-(2-hydroxyphenyl)-4,5-dihydro-1H-pyrazol-1-yl)benzene sulfonamide]
380 ± 100 | 260 ± 40 | 17200 ± 1770 | NS(=O)(=O)c1ccc(N2N=C(c3cc(Br)ccc3O)CC2c2ccc(Br)cc2)cc1 (stereo not drawn) [4h, 4-(3-(5-Bromo-2-hydroxyphenyl)-5-(4-bromophenyl)-4,5-dihydro-1H-pyrazol-1-yl)benzene sulfonamide]
